Values quoted from earlier work in US20170119742A1, “MEDICAMENT FOR PREVENTING AND/OR TREATING STRESS DISEASES” (ONO PHARMACEUTICAL CO., LTD., priority 2014, published 2017).

Molecular target: brain NK1 receptors (Homo sapiens, UniProt P25103)
Details: Non-Patent Document 5; cited from earlier work

Chain of brain NK1 receptors (P25103 whole entry): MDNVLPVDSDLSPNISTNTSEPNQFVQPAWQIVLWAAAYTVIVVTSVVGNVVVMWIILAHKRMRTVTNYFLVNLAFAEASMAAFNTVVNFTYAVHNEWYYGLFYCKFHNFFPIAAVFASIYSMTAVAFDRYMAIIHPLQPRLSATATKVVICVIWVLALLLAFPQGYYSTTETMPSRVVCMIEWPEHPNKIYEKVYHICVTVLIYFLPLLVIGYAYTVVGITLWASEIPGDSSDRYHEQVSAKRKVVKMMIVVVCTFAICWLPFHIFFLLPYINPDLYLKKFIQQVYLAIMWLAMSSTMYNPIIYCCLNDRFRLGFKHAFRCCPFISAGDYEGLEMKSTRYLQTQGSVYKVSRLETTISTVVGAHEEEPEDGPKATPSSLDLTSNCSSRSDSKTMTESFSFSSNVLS

## C[C@@H](O[C@H]1OCCN(Cc2n[nH]c(=O)[nH]2)[C@H]1c1ccc(F)cc1)c1cc(C(F)(F)F)cc(C(F)(F)F)c1 [aprepitant]
  brain NK1 receptor occupancy necessary for expressing the efficacy: ≥ 90%
  plasma concentration at 90% or more brain NK1 receptor occupancy: ≥ 100 ng/mL
